Measured values published in patent US5552382A (priority 1994, dated 1996).
Converted amounts (≈) assume the structure as drawn.

How the values were obtained:
IIIB strain of HIV = assay: microbe, parasite or virus in culture; format: cell-based
Description: The following test procedure was employed.
In a classical virology assay aimed at testing the antiviral activity of a drug, the virus is added in the presence of a drug to target cells for the determined period of inoculation time, e.g., 1 hour, and then nonadsorbed virus is washed away and inoculated cells are exposed again to a fresh drug. After several days, a period corresponding to the replication cycle of the virus, the dose-effect of the drug is tested by measuring the quantity of newly-synthesized virus in the culture supernates of inoculated cells. But this strategy is not truly representative of the in vivo situation. It is clear that in a real-life situation the virus is not "flushed" from a human body prior to drug administration. […] In the present assay, virus, drug and cells were left without washing in the culture until tested for virus production 3 days later. This period of time presents one full cycle of HIV replication, Dimitrov et al., J. Virol. 67:2182-90, 1993. It is believed that this type of approach represents more closely and simulates the situation which exists in vivo.
p24 ELISA. Reduction of productive infection was evaluated by a commercial ELISA kit for viral core gag p24 product according to the manufacturer's instructions (Coulter, Hialeah, Fla.) as follows. Detergent-lysed samples of viral culture medium that were incubated in wells (96-well format), precoated with anti-p24 antibody, were screened for gag antigen by adding biotin-labeled anti-p24 antibody followed by streptavidin-peroxidase conjugate. The amount of captured p24 was measured by comparing the optical density (450 nm) of peroxidase substrate with supplied standards containing known amounts of p24. The lower limit of reliable sensitivity of this kit is 7.8 pg/ml.

HIV = settings: cited from earlier work; for Dose protecting against / abrogating HIV infection in vitro: literature figures, equivalent of the % or μM value
MT-4 lymphocytes = settings: MT-4 cells, 3 days continuous exposure; approximate log10 concentration
[1] = 30 minutes in an autoclave; cited from earlier work
[2] = MT-4 cells, HIV IIIB, 3 days, p24 ELISA, approximate log10 concentration

Compound	Dose giving complete protection against HIV infection (IIIB strain of HIV; MT-4 cells, HIV IIIB) [µg/mL]	IC50 (50% inhibition of HIV infection) (IIIB strain of HIV; [2]) [ng]	IC100 (100% inhibition of HIV infection) (IIIB strain of HIV; [2]) [µg]	Dose protecting against / abrogating HIV infection in vitro (HIV) [µg/mL]	Dose at which the protective effect was generally observed in vitro (HIV; literature review of in vitro investigations) [%]	CC100 (cytotoxicity) (MT-4 lymphocytes) [µg]	Cytopathic effect (membrane ballooning, syncytia) (IIIB strain of HIV; wells where viral replication was completely inhibited)	Retention of biological activity after autoclaving [1]	IC50 (IIIB strain of HIV; Human immunodeficiency virus 1, MT4, 72 h, MT-4 cells, HIV IIIB, 3 days, p24 ELISA, approximate log10 concentration, read-out: IC50 (50% inhibition of HIV infection)) [µg/mL]	Concentration reported to abrogate HIV infection (HIV; literature in vitro studies) [µM]
nonoxynol-9	10	~10	~10	50	0.05	~10	–	–	–	–
gramicidin	–	–	~0.01	–	–	–	No signs of cytophatic effect were observed	–	–	–
gramicidin S	–	–	–	–	–	–	–	retains its biological activity	–	–
Cc1cc2c(C(C)C)c(O)c(O)c(C=O)c2c(O)c1-c1c(C)cc2c(C(C)C)c(O)c(O)c(C=O)c2c1O [Gossypol, gossypol]	10	–	~10	50	–	~10	–	–	~1 (≈ 1.93 µM)	100
